Earlier results in US20220395496A1 (Hoffmann-La Roche Inc., priority 2019, published 2022).

What was measured:
HEK/hTLR9 = target: T1, HEK/hTLR9 (Homo sapiens, UniProt Q9NR96); settings: data disclosed in WO2015057655; cited from earlier work
T1 construct: host or cells: HEK cells
T1 sequence (Q9NR96 26-1032): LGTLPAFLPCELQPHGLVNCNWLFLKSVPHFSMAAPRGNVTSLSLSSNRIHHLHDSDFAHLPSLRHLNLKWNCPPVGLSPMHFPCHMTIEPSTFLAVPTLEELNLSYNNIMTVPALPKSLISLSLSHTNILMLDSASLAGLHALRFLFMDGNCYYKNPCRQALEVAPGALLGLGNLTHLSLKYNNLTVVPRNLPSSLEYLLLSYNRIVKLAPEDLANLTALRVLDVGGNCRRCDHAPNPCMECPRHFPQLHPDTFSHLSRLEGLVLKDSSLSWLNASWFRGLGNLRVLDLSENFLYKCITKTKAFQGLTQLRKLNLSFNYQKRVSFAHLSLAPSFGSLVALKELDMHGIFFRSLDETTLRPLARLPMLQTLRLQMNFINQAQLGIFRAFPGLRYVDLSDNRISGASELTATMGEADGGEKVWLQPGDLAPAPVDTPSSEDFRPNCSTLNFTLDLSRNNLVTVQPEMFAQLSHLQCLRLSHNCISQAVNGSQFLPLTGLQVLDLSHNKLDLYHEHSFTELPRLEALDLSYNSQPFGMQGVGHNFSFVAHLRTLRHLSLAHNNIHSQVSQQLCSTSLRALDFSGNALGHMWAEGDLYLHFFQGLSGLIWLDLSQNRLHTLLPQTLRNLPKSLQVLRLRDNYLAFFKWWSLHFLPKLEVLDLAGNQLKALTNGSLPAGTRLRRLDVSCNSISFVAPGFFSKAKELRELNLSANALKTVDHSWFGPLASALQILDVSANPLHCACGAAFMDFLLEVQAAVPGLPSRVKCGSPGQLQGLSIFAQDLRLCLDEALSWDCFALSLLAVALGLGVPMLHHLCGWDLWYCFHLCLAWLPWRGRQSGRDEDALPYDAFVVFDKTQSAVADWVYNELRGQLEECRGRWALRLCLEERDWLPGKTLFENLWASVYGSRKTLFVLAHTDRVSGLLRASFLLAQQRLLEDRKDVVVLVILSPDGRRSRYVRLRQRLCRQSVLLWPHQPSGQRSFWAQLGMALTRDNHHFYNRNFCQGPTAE

HEK/hTLR7 = target: T2, HEK/hTLR7 (Homo sapiens, UniProt Q9NYK1); settings: data disclosed in WO2015057655; cited from earlier work
T2 construct: host or cells: HEK cells
T2 sequence (Q9NYK1 27-1049): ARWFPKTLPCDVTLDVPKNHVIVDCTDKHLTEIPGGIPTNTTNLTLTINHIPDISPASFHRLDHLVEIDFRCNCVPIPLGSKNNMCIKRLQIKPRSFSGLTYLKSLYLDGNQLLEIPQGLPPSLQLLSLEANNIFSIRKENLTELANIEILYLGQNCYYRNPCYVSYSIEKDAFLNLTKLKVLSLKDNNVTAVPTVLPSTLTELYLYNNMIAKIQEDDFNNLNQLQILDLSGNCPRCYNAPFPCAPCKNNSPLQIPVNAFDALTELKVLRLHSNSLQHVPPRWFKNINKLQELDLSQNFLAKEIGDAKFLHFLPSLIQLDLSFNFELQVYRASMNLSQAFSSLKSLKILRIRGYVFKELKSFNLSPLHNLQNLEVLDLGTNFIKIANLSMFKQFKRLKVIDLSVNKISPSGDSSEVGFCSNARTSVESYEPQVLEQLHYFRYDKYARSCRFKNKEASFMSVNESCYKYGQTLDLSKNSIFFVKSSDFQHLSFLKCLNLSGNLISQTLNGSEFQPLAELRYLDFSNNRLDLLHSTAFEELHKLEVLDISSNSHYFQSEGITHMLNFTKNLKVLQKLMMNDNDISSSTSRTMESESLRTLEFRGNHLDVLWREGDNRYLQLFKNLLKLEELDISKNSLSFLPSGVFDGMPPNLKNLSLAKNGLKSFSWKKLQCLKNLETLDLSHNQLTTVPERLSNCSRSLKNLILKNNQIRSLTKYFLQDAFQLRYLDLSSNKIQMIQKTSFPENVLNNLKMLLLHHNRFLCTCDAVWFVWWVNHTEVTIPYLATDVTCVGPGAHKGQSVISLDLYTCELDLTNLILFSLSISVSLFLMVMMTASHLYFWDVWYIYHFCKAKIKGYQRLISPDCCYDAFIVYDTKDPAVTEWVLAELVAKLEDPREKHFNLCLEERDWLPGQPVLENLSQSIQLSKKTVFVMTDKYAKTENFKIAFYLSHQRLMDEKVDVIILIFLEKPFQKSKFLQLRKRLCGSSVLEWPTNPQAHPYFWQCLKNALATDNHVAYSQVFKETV

| Structure (SMILES) | IC50 (HEK/hTLR9) [nM] | IC50 (HEK/hTLR7) [nM] |
| --- | --- | --- |
| C[C@H]1C[C@@H](NCc2ccc(C(F)(F)F)cn2)CN(c2ccc(C#N)c3ncccc23)C1 [ER-899543] | > 10000 | 48 |
| C[C@H]1C[C@@H](NCc2ncco2)CN(c2ccc(C#N)c3ncccc23)C1 [ER-899551] | > 10000 | 43 |
| C[C@H]1C[C@@H](NCc2cn(C)cn2)CN(c2ccc(C#N)c3ncccc23)C1 [ER-899552] | 1970 | 207 |
| CC(N[C@@H]1C[C@H](C)CN(c2ccc(C#N)c3ncccc23)C1)c1ccccn1 (some centres unmarked) [ER-899607] | > 10000 | 149 |
